Where two headings read alike, the source gives them in different places.
Target: human PDE4D catalytic domain (UniProt no. Q08499) (Homo sapiens (Human), UniProt Q08499)
Assay: PDE4 assay (TR-FRET, FAM-cAMP cleavage)
Format: biochemical
Details: read-out: PDE4 IC50 range
Procedure, shortened: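 Read-out is time-resolved FRET from Tb donor to FAM-AMP captured on trivalent-metal nanoparticles added to stop the reaction. Substrate was a mix of plain and FAM-labelled cAMP, cleaved by human PDE4D catalytic domain ([…]) with titrated compound; IC50 ranges (nM) versus controls.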

[1] = human PDE4D catalytic domain, molar concentration giving 50% inhibition of substrate cleavage

Chain of human PDE4D catalytic domain (Q08499 380-740 limits assumed): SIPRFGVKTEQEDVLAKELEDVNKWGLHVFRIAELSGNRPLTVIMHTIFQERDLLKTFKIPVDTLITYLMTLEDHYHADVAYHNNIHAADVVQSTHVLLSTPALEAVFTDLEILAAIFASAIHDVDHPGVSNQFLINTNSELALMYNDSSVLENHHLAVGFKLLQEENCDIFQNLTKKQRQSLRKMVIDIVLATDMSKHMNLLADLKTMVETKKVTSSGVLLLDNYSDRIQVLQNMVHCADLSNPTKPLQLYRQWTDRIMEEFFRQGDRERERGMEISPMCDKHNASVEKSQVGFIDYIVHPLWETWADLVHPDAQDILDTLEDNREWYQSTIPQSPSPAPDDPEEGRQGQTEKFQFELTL

SMILES: CCc1nn(CCCOC(=O)c2ccc(C(F)(F)F)cc2)c2c1C(=O)NCC1(CCOCC1)C2 [Example 97, 3-(3-ethyl-4-oxo-spiro[6,8-dihydro-5H-pyrazolo[4,3-c]azepine-7,4′-tetrahydropyran]-1-yl)propyl 4-(trifluoromethyl)benzoate]
- IC50 [1]: < 100 nM

SMILES: CCc1nn(CCCOC(=O)c2cccc(C)c2)c2c1C(=O)NCC1(CCOCC1)C2 [Example 15, 3-(3-ethyl-4-oxo-spiro[6,8-dihydro-5H-pyrazolo[4,3-c]azepine-7,4′-tetrahydropyran]-1-yl)propyl 3-methylbenzoate]
- IC50 [1]: < 100 nM

SMILES: CCc1nn(C[C@@H](C)COC(=O)c2ccc(OC)c(C(F)(F)F)c2)c2c1C(=O)NCC1(CCOCC1)C2 [Example 230, [(2R)-3-(3-ethyl-4-oxo-spiro[6,8-dihydro-5H-pyrazolo[4,3-c]azepine-7,4′-tetrahydropyran]-1-yl)-2-methyl-propyl] 4-methoxy-3-(trifluoromethyl)benzoate]
- IC50 [1]: < 100 nM

SMILES: CCc1nn(CCCOC(=O)COC(C)C)c2c1C(=O)NCC1(CCOCC1)C2 [Example 12, 3-(3-ethyl-4-oxo-spiro[6,8-dihydro-5H-pyrazolo[4,3-c]azepine-7,4′-tetrahydropyran]-1-yl)propyl 2-isopropoxyacetate]
- IC50 [1]: > 500 nM

SMILES: CCc1nn(C[C@@H](C)COC(=O)c2cccc(S(=O)(=O)N3CCCC3)c2)c2c1C(=O)NCC1(CCOCC1)C2 [Example 246, [(2R)-3-(3-ethyl-4-oxo-spiro[6,8-dihydro-5H-pyrazolo[4,3-c]azepine-7,4′-tetrahydropyran]-1-yl)-2-methyl-propyl] 3-pyrrolidin-1-ylsulfonylbenzoate]
- IC50 [1]: < 100 nM

SMILES: CCc1nn(CCCOC(=O)c2ccc(C(F)(F)F)c(C(F)(F)F)c2)c2c1C(=O)NCC1(CCOCC1)C2 [Example 136, 3-(3-ethyl-4-oxo-spiro[6,8-dihydro-5H-pyrazolo[4,3-c]azepine-7,4′-tetrahydropyran]-1-yl)propyl 3,4-bis(trifluoromethyl) benzoate]
- IC50 [1]: < 100 nM

SMILES: CCc1nn(CCCOC(=O)c2ccc(C(=O)N3CCN(C(C)=O)CC3)cc2)c2c1C(=O)NCC1(CCOCC1)C2 [Example 149, 3-(3-ethyl-4-oxo-spiro[6,8-dihydro-5H-pyrazolo[4,3-c]azepine-7,4′-tetrahydropyran]-1-yl)propyl 4-(4-acetylpiperazine-1-carbonyl)benzoate]
- IC50 [1]: 100 to 500 nM

SMILES: CCc1nn(CC(C)(C)COC(=O)c2ccc(C#N)cc2F)c2c1C(=O)NCC1(CCOCC1)C2 [Example 298, [3-(3-ethyl-4-oxo-spiro[6,8-dihydro-5H-pyrazolo[4,3-c]azepine-7,4′-tetrahydropyran]-1-yl)-2,2-dimethyl-propyl] 4-cyano-2-fluoro-benzoate]
- IC50: < 100 nM

SMILES: CCc1nn(C[C@@H](C)COC(=O)c2cc(OC)ccc2C(F)(F)F)c2c1C(=O)NCC1(CCOCC1)C2 [Example 231, [(2R)-3-(3-ethyl-4-oxo-spiro[6,8-dihydro-5H-pyrazolo[4,3-c]azepine-7,4′-tetrahydropyran]-1-yl)-2-methyl-propyl] 5-methoxy-2-(trifluoromethyl)benzoate]
- IC50 [1]: < 100 nM

SMILES: CCc1nn(CC(C)(C)COC(=O)c2cccc(OC)c2)c2c1C(=O)NCC1(CCOCC1)C2 [Example 289, [3-(3-ethyl-4-oxo-spiro[6,8-dihydro-5H-pyrazolo[4,3-c]azepine-7,4′-tetrahydropyran]-1-yl)-2,2-dimethyl-propyl] 3-methoxybenzoate]
- IC50: < 100 nM

SMILES: CCc1nn(CCCOC(=O)[C@H]2CC[C@H](O)CC2)c2c1C(=O)NCC1(CCOCC1)C2 [Example 22, 3-(3-ethyl-4-oxo-spiro[6,8-dihydro-5H-pyrazolo[4,3-c]azepine-7,4′-tetrahydropyran]-1-yl)propyl trans-4-hydroxycyclohexane-carboxylate]
- IC50 [1]: 100 to 500 nM

SMILES: CCc1nn(CCCOC(=O)c2cc(Cl)ccc2OC)c2c1C(=O)NCC1(CCOCC1)C2 [Example 93, 3-(3-ethyl-4-oxo-spiro[6,8-dihydro-5H-pyrazolo[4,3-c]azepine-7,4′-tetrahydropyran]-1-yl)propyl 5-chloro-2-methoxy-benzoate]
- IC50 [1]: < 100 nM

SMILES: CCc1nn(CCCOC(=O)c2cccc(C(=O)N3CCOCC3)c2)c2c1C(=O)NCC1(CCOCC1)C2 [Example 157, 3-(3-ethyl-4-oxo-spiro[6,8-dihydro-5H-pyrazolo[4,3-c]azepine-7,4′-tetrahydropyran]-1-yl)propyl 3-(morpholine-4-carbonyl)benzoate]
- IC50 [1]: < 100 nM

SMILES: CCc1nn(CC(C)(C)COC(=O)c2ccc(C(=O)N3CCCC3)cc2)c2c1C(=O)NCC1(CCOCC1)C2 [Example 333, [3-(3-ethyl-4-oxo-spiro[6,8-dihydro-5H-pyrazolo[4,3-c]azepine-7,4′-tetrahydropyran]-1-yl)-2,2-dimethyl-propyl] 4-(pyrrolidine-1-carbonyl)benzoate]
- IC50: < 100 nM

SMILES: CCc1nn(CC(C)(C)COC(=O)c2cccc(S(=O)(=O)N3CCN(C(C)=O)CC3)c2)c2c1C(=O)NCC1(CCOCC1)C2 [Example 325, [3-(3-ethyl-4-oxo-spiro[6,8-dihydro-5H-pyrazolo[4,3-c]azepine-7,4′-tetrahydropyran]-1-yl)-2,2-dimethyl-propyl] 3-(4-acetylpiperazin-1-yl)sulfonylbenzoate]
- IC50: < 100 nM

SMILES: CCc1nn(CC(C)(C)COC(=O)c2cccc(C(C)=O)c2)c2c1C(=O)NCC1(CCOCC1)C2 [Example 296, [3-(3-ethyl-4-oxo-spiro[6,8-dihydro-5H-pyrazolo[4,3-c]azepine-7,4′-tetrahydropyran]-1-yl)-2,2-dimethyl-propyl] 3-acetylbenzoate]
- IC50: < 100 nM

SMILES: CCc1nn(CC(C)(C)COC(=O)c2cccc(S(=O)(=O)N3CCOCC3)c2)c2c1C(=O)NCC1(CCOCC1)C2 [Example 323, [3-(3-ethyl-4-oxo-spiro[6,8-dihydro-5H-pyrazolo[4,3-c]azepine-7,4′-tetrahydropyran]-1-yl)-2,2-dimethyl-propyl] 3-morpholinosulfonylbenzoate]
- IC50: < 100 nM

SMILES: CCc1nn(CCCOC(=O)c2ccc(Cl)cc2)c2c1C(=O)NCC1(CCOCC1)C2 [Example 42, 3-(3-ethyl-4-oxo-spiro[6,8-dihydro-5H-pyrazolo[4,3-c]azepine-7,4′-tetrahydropyran]-1-yl)propyl 4-chlorobenzoate]
- IC50 [1]: < 100 nM

SMILES: CCc1nn(C[C@@H](C)COC(=O)c2cc(OC)ccc2F)c2c1C(=O)NCC1(CCOCC1)C2 [Example 191, [(2R)-3-(3-ethyl-4-oxo-spiro[6,8-dihydro-5H-pyrazolo[4,3-c]azepine-7,4′-tetrahydropyran]-1-yl)-2-methyl-propyl] 2-fluoro-5-methoxy-benzoate]
- IC50 [1]: < 100 nM

SMILES: CCc1nn(C[C@H](C)COC(=O)c2ccc(Cl)cc2)c2c1C(=O)NCC1(CCOCC1)C2 [Example 279, [(2S)-3-(3-ethyl-4-oxo-spiro[6,8-dihydro-5H-pyrazolo[4,3-c]azepine-7,4′-tetrahydropyran]-1-yl)-2-methyl-propyl] 4-chlorobenzoate]
- IC50: < 100 nM

SMILES: CCc1nn(CCCOC(=O)c2cc(Cl)ccc2C(F)(F)F)c2c1C(=O)NCC1(CCOCC1)C2 [Example 124, 3-(3-ethyl-4-oxo-spiro[6,8-dihydro-5H-pyrazolo[4,3-c]azepine-7,4′-tetrahydropyran]-1-yl)propyl 5-chloro-2-(trifluoromethyl)benzoate]
- IC50 [1]: < 100 nM

SMILES: CCc1nn(CCCOC(=O)c2cccc(S(N)(=O)=O)c2)c2c1C(=O)NCC1(CCOCC1)C2 [Example 102, 3-(3-ethyl-4-oxo-spiro[6,8-dihydro-5H-pyrazolo[4,3-c]azepine-7,4′-tetrahydropyran]-1-yl)propyl 3-sulfamoylbenzoate]
- IC50 [1]: < 100 nM

SMILES: CCc1nn(CCCOC(=O)c2cc(OC)ccc2C(F)(F)F)c2c1C(=O)NCC1(CCOCC1)C2 [Example 119, 3-(3-ethyl-4-oxo-spiro[6,8-dihydro-5H-pyrazolo[4,3-c]azepine-7,4′-tetrahydropyran]-1-yl)propyl 5-methoxy-2-(trifluoromethyl)benzoate]
- IC50 [1]: < 100 nM

SMILES: CCc1nn(C[C@@H](C)COC(=O)c2ccc(C)cc2C)c2c1C(=O)NCC1(CCOCC1)C2 [Example 170, [(2R)-3-(3-ethyl-4-oxo-spiro[6,8-dihydro-5H-pyrazolo[4,3-c]azepine-7,4′-tetrahydropyran]-1-yl)-2-methyl-propyl] 2,4-dimethylbenzoate]
- IC50 [1]: < 100 nM

SMILES: CCc1nn(C[C@H](C)COC(=O)c2cccc(OC)c2)c2c1C(=O)NCC1(CCOCC1)C2 [Example 278, [(2S)-3-(3-ethyl-4-oxo-spiro[6,8-dihydro-5H-pyrazolo[4,3-c]azepine-7,4′-tetrahydropyran]-1-yl)-2-methyl-propyl] 3-methoxybenzoate]
- IC50: < 100 nM

SMILES: CCc1nn(CCCOC(=O)c2cccc(S(=O)(=O)C(C)C)c2)c2c1C(=O)NCC1(CCOCC1)C2 [Example 129, 3-(3-ethyl-4-oxo-spiro[6,8-dihydro-5H-pyrazolo[4,3-c]azepine-7,4′-tetrahydropyran]-1-yl)propyl 3-isopropylsulfonylbenzoate]
- IC50 [1]: < 100 nM

SMILES: CCc1nn(CCCOC(=O)c2ccccc2Cl)c2c1C(=O)NCC1(CCOCC1)C2 [Example 40, 3-(3-ethyl-4-oxo-spiro[6,8-dihydro-5H-pyrazolo[4,3-c]azepine-7,4′-tetrahydropyran]-1-yl)propyl 2-chlorobenzoate]
- IC50 [1]: < 100 nM

SMILES: CCc1nn(CC(C)(C)COC(=O)c2ccc(C)cc2)c2c1C(=O)NCC1(CCOCC1)C2 [Example 283, [3-(3-ethyl-4-oxo-spiro[6,8-dihydro-5H-pyrazolo[4,3-c]azepine-7,4′-tetrahydropyran]-1-yl)-2,2-dimethyl-propyl] 4-methylbenzoate]
- IC50: < 100 nM

SMILES: CCc1nn(C[C@@H](C)COC(=O)c2ccc(C(=O)NC(C)C)cc2)c2c1C(=O)NCC1(CCOCC1)C2 [Example 256, [(2R)-3-(3-ethyl-4-oxo-spiro[6,8-dihydro-5H-pyrazolo[4,3-c]azepine-7,4′-tetrahydropyran]-1-yl)-2-methyl-propyl] 4-(isopropylcarbamoyl)benzoate]
- IC50 [1]: < 100 nM
